Assay results: ChEMBL document CHEMBL5046290, “Design, Synthesis, and Preclinical Profiling of GSK3739936 (BMS-986180), an Allosteric Inhibitor of HIV-1 Integrase with Broad-Spectrum Activity toward 124/125 Polymorphs” (J Med Chem, 2022)

Key:
[1] = Displacement of [3H](S)-2-(tert-butoxy)-2-(2-methyl-4-(p-tolyl)quinolin-3-yl)acetic acid from LEDGF-binding site of recombinant T124/T125 polymorphic HIV1 integrase by LIDIA assay; set-up: species or system Human immunodeficiency virus 1
[2] = system: Human immunodeficiency virus 1; assay: Antiviral activity against recombinant HIV1 NLRep-Rluc harbouring polymorphic T124/T125 integrase infected in human MT-2 cells assessed as inhibition of virus growth in presence of fetal bovine serum by measuring luciferase activity after 5 days; type: functional, organism-based, MT2; conditions: Human immunodeficiency virus 1, NLRep, MT2, 120 h
[3] = Cytotoxicity against human MT2 cells assessed as cell viability measured after 4 days by XTT assay; type: toxicity, cell-based; conditions: time 4 day
[4] = Metabolic stability in rat liver microsome assessed half life at 0.5 uM by LC-MS/MS analysis; type: ADME; conditions: liver microsomes
[5] = Metabolic stability in human liver microsome assessed half life at 0.5 uM by LC-MS/MS analysis; type: ADME; conditions: liver microsomes
[6] = Clearance in Sprague-Dawley rat at 1 mg/kg, iv by LC-MS/MS analysis; type: ADME, organism-based; conditions: in vivo
[7] = system: Human immunodeficiency virus 1; assay: Antiviral activity against recombinant HIV1 NLRep-Rluc harbouring polymorphic AA infected in human MT-2 cells assessed as inhibition of virus growth in presence of fetal bovine serum by measuring luciferase activity after 5 days; type: functional, organism-based; conditions: Human immunodeficiency virus 1, NLRep, MT2, 120 h
[8] = system: Human immunodeficiency virus 1; assay: Antiviral activity against recombinant HIV1 NLRep-Rluc harbouring polymorphic AT infected in human MT-2 cells assessed as inhibition of virus growth in presence of fetal bovine serum by measuring luciferase activity after 5 days; type: functional, organism-based; conditions: Human immunodeficiency virus 1, NLRep, MT2, 120 h
[9] = system: Human immunodeficiency virus 1; assay: Antiviral activity against recombinant HIV1 NLRep-Rluc harbouring polymorphic NA infected in human MT-2 cells assessed as inhibition of virus growth in presence of fetal bovine serum by measuring luciferase activity after 5 days; type: functional, organism-based; conditions: Human immunodeficiency virus 1, NLRep, MT2, 120 h
[10] = system: Human immunodeficiency virus 1; assay: Antiviral activity against recombinant HIV1 NLRep-Rluc harbouring polymorphic TA infected in human MT-2 cells assessed as inhibition of virus growth in presence of fetal bovine serum by measuring luciferase activity after 5 days; type: functional, organism-based; conditions: Human immunodeficiency virus 1, NLRep, MT2, 120 h
[11] = system: Human immunodeficiency virus 1; assay: Antiviral activity against recombinant HIV1 NLRep-Rluc harbouring polymorphic NT infected in human MT-2 cells assessed as inhibition of virus growth in presence of fetal bovine serum by measuring luciferase activity after 5 days; type: functional, organism-based; conditions: Human immunodeficiency virus 1, NLRep, MT2, 120 h
[12] = system: Human immunodeficiency virus 1; assay: Antiviral activity against recombinant HIV1 A128T-resitant mutant […] infected in human MT-2 cells assessed as inhibition of virus growth in presence of fetal bovine serum by measuring luciferase activity after 5 days; type: functional, organism-based; conditions: Human immunodeficiency virus 1, MT2, 120 h
[13] = system: Human immunodeficiency virus 1; assay: Anti retroviral activity against HIV-1 NL4-3 harboring at AA polymorph infected in human MT4 cells by CellTitre-Glo luminescent reagent based assay; type: functional, organism-based; conditions: Human immunodeficiency virus 1, NL4-3, MT4
[14] = system: Human immunodeficiency virus 1; assay: Anti retroviral activity against HIV-1 NL4-3 harboring at TA polymorph infected in human MT4 cells by CellTitre-Glo luminescent reagent based assay; type: functional, organism-based; conditions: Human immunodeficiency virus 1, NL4-3, MT4
[15] = system: Human immunodeficiency virus 1; assay: Anti retroviral activity against HIV-1 NL4-3 harboring at AT polymorph infected in human MT4 cells by CellTitre-Glo luminescent reagent based assay; type: functional, organism-based; conditions: Human immunodeficiency virus 1, NL4-3, MT4
[16] = system: Human immunodeficiency virus 1; assay: Anti retroviral activity against HIV-1 NL4-3 harboring at TT polymorph infected in human MT4 cells by CellTitre-Glo luminescent reagent based assay; type: functional, organism-based; conditions: Human immunodeficiency virus 1, NL4-3, MT4

Question: Which IC50 [1] does the source give for `Cc1nc(C)c([C@H](OC(C)(C)C)C(=O)O)c(N2CCC(C)(C)CC2)c1-c1ccc(Cc2ccccc2)cc1` here?
Answer: 13.4 nM

Question: And the EC50 [2]?
Answer: 12.2 nM

Question: And the CC50 at 96 h [3]?
Answer: ≥ 20000 nM

Question: With `Cc1ncsc1CCOc1ccc(-c2c(C)nc(C)c([C@H](OC(C)(C)C)C(=O)O)c2N2CCC(C)(C)CC2)cc1` as the compound, how does the IC50 [1] read?
Answer: 12.7 nM

Question: What about the EC50 [2] of the same compound?
Answer: 0.8 nM

Question: And the CC50 at 96 h [3]?
Answer: ≥ 25000 nM

Question: And the half-life at 0.5 µM [4]?
Answer: > 2 h

Question: And the half-life at 0.5 µM [5]?
Answer: 1.5 h

Question: And the clearance [6]?
Answer: 69 mL/min/kg

Question: And the EC50 [7]?
Answer: 0.7 nM

Question: What about the EC50 [8] of the same compound?
Answer: 1 nM

Question: And the EC50 [9]?
Answer: 1.3 nM

Question: What about the EC50 [10] of the same compound?
Answer: 0.75 nM

Question: And the EC50 [11]?
Answer: 1 nM

Question: And the EC50 [12]?
Answer: 107 nM

Question: What does the source list for `COc1ccc(CCOc2ccc(-c3c(C)nc(C)c([C@H](OC(C)(C)C)C(=O)O)c3N3CCC(C)(C)CC3)cc2)cc1`?
Answer: IC50 [1]: 13.2 nM; EC50 [2]: 3.9 nM; CC50 at 96 h [3]: ≥ 33500 nM; half-life at 0.5 µM [4]: > 2 h; half-life at 0.5 µM [5]: > 2 h; clearance [6]: 13.4 mL/min/kg

Question: For `Cc1nc(C)c([C@H](OC(C)(C)C)C(=O)O)c(N2CCC(C)(C)CC2)c1-c1ccc(OCCc2ccc(F)cc2F)cc1`, which IC50 [1] is on record?
Answer: 11.6 nM

Question: And the EC50 [2]?
Answer: 3.6 nM

Question: What about the CC50 at 96 h [3] of the same compound?
Answer: ≥ 33500 nM

Question: What about the half-life at 0.5 µM [4] of the same compound?
Answer: > 2 h

Question: What about the half-life at 0.5 µM [5] of the same compound?
Answer: 1.08 h

Question: What about the clearance [6] of the same compound?
Answer: 9 mL/min/kg

Question: Which IC50 [1] does the source give for `Cc1ccc(CCOc2ccc(-c3c(C)nc(C)c([C@H](OC(C)(C)C)C(=O)O)c3N3CCC(C)(C)CC3)cc2)cc1` here?
Answer: 15.5 nM

Question: And the EC50 [2]?
Answer: 14.7 nM

Question: What about the CC50 at 96 h [3] of the same compound?
Answer: ≥ 33500 nM

Question: With `Cc1nc(C)c([C@H](OC(C)(C)C)C(=O)O)c(N2CCC(C)(C)CC2)c1-c1ccc(NCCc2ccc(F)cc2)cc1` as the compound, how does the IC50 [1] read?
Answer: 18 nM

Question: What about the EC50 [2] of the same compound?
Answer: 5.4 nM

Question: What about the CC50 at 96 h [3] of the same compound?
Answer: ≥ 32000 nM

Question: What about the half-life at 0.5 µM [4] of the same compound?
Answer: 1.83 h

Question: And the half-life at 0.5 µM [5]?
Answer: 0.683 h

Question: And the clearance [6]?
Answer: 12 mL/min/kg

Question: For `Cc1noc(C)c1CCOc1ccc(-c2c(C)nc(C)c([C@H](OC(C)(C)C)C(=O)O)c2N2CCC(C)(C)CC2)cc1`, which IC50 [1] is on record?
Answer: 11.4 nM

Question: And the EC50 [2]?
Answer: 1.5 nM

Question: And the CC50 at 96 h [3]?
Answer: ≥ 25000 nM

Question: What about the half-life at 0.5 µM [4] of the same compound?
Answer: 1.32 h

Question: And the half-life at 0.5 µM [5]?
Answer: 0.467 h

Question: And the clearance [6]?
Answer: 58.9 mL/min/kg

Question: Which results are given for `Cc1nc(C)c([C@H](OC(C)(C)C)C(=O)O)c(N2CCC(C)(C)CC2)c1-c1ccc(SCCc2ccc(F)cc2)cc1`?
Answer: IC50 [1]: 98 nM; EC50 [2]: 15.6 nM; CC50 at 96 h [3]: ≥ 32000 nM; half-life at 0.5 µM [4]: > 2 h; half-life at 0.5 µM [5]: > 2 h

Question: Which results are given for `Cc1nc(C)c([C@H](OC(C)(C)C)C(=O)O)c(N2CCC(C)(C)CC2)c1-c1ccc(Oc2ccccc2)cc1`?
Answer: IC50 [1]: 53.5 nM; EC50 [2]: 37.5 nM; CC50 at 96 h [3]: ≥ 20000 nM

Question: For `Cc1nc(C)c([C@H](OC(C)(C)C)C(=O)O)c(N2CCC(C)(C)CC2)c1-c1ccccc1`, which IC50 [1] is on record?
Answer: 55.5 nM

Question: What about the EC50 [2] of the same compound?
Answer: 67 nM

Question: Which results are given for `Cc1nc(C)c([C@H](OC(C)(C)C)C(=O)O)c(N2CCC(C)(C)CC2)c1-c1ccc(OCCc2ccncc2)cc1`?
Answer: EC50 [2]: 0.6 nM; CC50 at 96 h [3]: ≥ 25000 nM

Question: For `Cc1nc(C)c([C@H](OC(C)(C)C)C(=O)O)c(N2CCC(C)(C)CC2)c1-c1ccc(OCCc2ccc(Cl)cc2)cc1`, which IC50 [1] is on record?
Answer: 30.4 nM

Question: And the EC50 [2]?
Answer: 12 nM

Question: And the CC50 at 96 h [3]?
Answer: ≥ 33500 nM

Question: What does the source list for `Cc1nc(C)c([C@H](OC(C)(C)C)C(=O)O)c(N2CCC(C)(C)CC2)c1-c1ccc(OCCc2ccc(F)c(F)c2)cc1`?
Answer: IC50 [1]: 6.7 nM; EC50 [2]: 2.7 nM; CC50 at 96 h [3]: ≥ 33500 nM; half-life at 0.5 µM [4]: 0.85 h; half-life at 0.5 µM [5]: > 2 h; clearance [6]: 5.8 mL/min/kg; EC50 [7]: 3.7 nM; EC50 [8]: 2.7 nM; EC50 [9]: 7 nM; EC50 [10]: 1.8 nM; EC50 [11]: 2.1 nM; EC50 [12]: 255 nM

Question: With `COc1cccc(CCOc2ccc(-c3c(C)nc(C)c([C@H](OC(C)(C)C)C(=O)O)c3N3CCC(C)(C)CC3)cc2)c1` as the compound, how does the IC50 [1] read?
Answer: 15.9 nM

Question: And the EC50 [2]?
Answer: 1.7 nM

Question: What about the CC50 at 96 h [3] of the same compound?
Answer: ≥ 33500 nM

Question: What about the half-life at 0.5 µM [4] of the same compound?
Answer: > 2 h

Question: What about the half-life at 0.5 µM [5] of the same compound?
Answer: > 2 h

Question: Which results are given for `Cc1nc(C)c([C@H](OC(C)(C)C)C(=O)O)c(N2CCC(C)(C)CC2)c1-c1ccc(OCCCc2ccc(F)cc2)cc1`?
Answer: IC50 [1]: 35.5 nM; EC50 [2]: 11.9 nM; CC50 at 96 h [3]: ≥ 32000 nM; half-life at 0.5 µM [4]: > 2 h; half-life at 0.5 µM [5]: > 2 h

Question: For `Cc1sc(-c2ccncc2)c(C2=CCC(C)(C)CC2)c1[C@H](OC(C)(C)C)C(=O)O`, which EC50 [13] is on record?
Answer: 1500 nM

Question: What about the EC50 [14] of the same compound?
Answer: 1600 nM

Question: And the EC50 [15]?
Answer: 14000 nM

Question: And the EC50 [16]?
Answer: 31 nM
